Measurements from ChEMBL document CHEMBL2169878 (J Med Chem, 2012).
The source made the active and inactive calls. The rule behind the calls is not given here.

Experiments:
Plasmodium falciparum [1] = test: Antiplasmodial activity against chloroquine-sensitive Plasmodium falciparum D10 infected in human RBC after 72 hrs by parasite lactate dehydrogenase assay; format: functional, organism-based; conditions: D10, 72 h
Salmonella typhimurium [2] = test: Mutagenicity against Salmonella typhimurium TA98 assessed as revertants at 40 uM incubated for 90 mins followed by drug washout measured after 2 days relative to positive control; format: toxicity, organism-based; conditions: salmonella enterica subsp. enterica serovar typhimurium
[3] = molecular target: T1, Chloroquine resistance transporter (Plasmodium falciparum) (UniProt Q9N623); test: Inhibition of chloroquine-resistant Plasmodium falciparum Dd2 CRT expressed in Xenopus laevis oocyte assessed as inhibition of [3H]chloroquine uptake at 100 uM measured from 1 to 2 hrs
T1 sequence (whole entry): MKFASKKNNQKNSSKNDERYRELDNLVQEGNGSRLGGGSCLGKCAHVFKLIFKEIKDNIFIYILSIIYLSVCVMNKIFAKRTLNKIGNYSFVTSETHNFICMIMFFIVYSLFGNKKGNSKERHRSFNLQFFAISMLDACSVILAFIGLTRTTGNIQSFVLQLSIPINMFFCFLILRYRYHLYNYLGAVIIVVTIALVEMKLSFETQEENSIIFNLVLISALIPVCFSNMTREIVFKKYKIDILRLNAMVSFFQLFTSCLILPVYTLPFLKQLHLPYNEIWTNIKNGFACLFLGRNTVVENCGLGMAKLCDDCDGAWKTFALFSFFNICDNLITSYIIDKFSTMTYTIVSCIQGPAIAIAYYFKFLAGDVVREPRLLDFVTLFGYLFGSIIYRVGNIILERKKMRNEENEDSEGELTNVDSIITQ

Plasmodium berghei [4] = test: Antimalarial activity against Plasmodium berghei ANKA expressing GFP infected in mouse assessed as mean survival days at 30 mg/kg, po administered 24 hrs post-infection (reference value: 6 to 7 days); format: functional
Salmonella typhimurium [5] = test: Mutagenicity against Salmonella typhimurium TA100 assessed as revertants at 61 uM incubated for 90 mins followed by drug washout measured after 2 days relative to positive control; format: toxicity, organism-based; conditions: salmonella enterica subsp. enterica serovar typhimurium
Salmonella typhimurium [6] = test: Mutagenicity against Salmonella typhimurium TA100 assessed as revertants at 80 uM incubated for 90 mins followed by drug washout measured after 2 days relative to positive control; format: toxicity, organism-based; conditions: salmonella enterica subsp. enterica serovar typhimurium
Salmonella typhimurium [7] = test: Mutagenicity against Salmonella typhimurium TA98 assessed as revertants at 7 uM incubated for 90 mins followed by drug washout measured after 2 days relative to positive control; format: toxicity, organism-based; conditions: salmonella enterica subsp. enterica serovar typhimurium
Plasmodium berghei [8] = test: Antimalarial activity against Plasmodium berghei ANKA expressing GFP infected in mouse assessed as reduction in parasitemia at 100 mg/kg, po administered 24 hrs post-infection measured 48 hrs post-dosing by flow cytometric analysis; format: functional; set-up: scale not given: the % may be the effect or the level left
Plasmodium berghei [9] = test: Antimalarial activity against Plasmodium berghei ANKA expressing GFP infected in mouse assessed as cure from infection at 30 mg/kg, po administered 24 hrs post-infection measured on day 30; format: functional, organism-based; set-up: dose 30 mg/kg
[10] = Cytotoxicity against human HepG2 cells after 24 hrs by neutral red dye uptake assay; format: cell-based; conditions: read-out: TC50
Plasmodium falciparum [11] = test: Antiplasmodial activity against chloroquine-sensitive Plasmodium falciparum NF54 infected in human erythrocytes assessed as inhibition of [3H]hypoxanthine incorporation incubated for 48 hrs prior to [3H]hypoxanthine addition measured after 48 hrs by liquid scintillation counting; format: functional, organism-based
Salmonella typhimurium [12] = test: Mutagenicity against Salmonella typhimurium TA100 assessed as revertants at 7 uM incubated for 90 mins followed by drug washout measured after 2 days relative to positive control; format: toxicity, organism-based; conditions: salmonella enterica subsp. enterica serovar typhimurium, 1.5 h
Salmonella typhimurium [13] = test: Mutagenicity against Salmonella typhimurium TA98 assessed as revertants at 80 uM incubated for 90 mins followed by drug washout measured after 2 days relative to positive control; format: toxicity, organism-based; conditions: salmonella enterica subsp. enterica serovar typhimurium, 1.5 h
Salmonella typhimurium [14] = test: Mutagenicity against Salmonella typhimurium TA98 assessed as revertants at 24 uM incubated for 90 mins followed by drug washout measured after 2 days relative to positive control; format: toxicity, organism-based; conditions: salmonella enterica subsp. enterica serovar typhimurium, 1.5 h
Plasmodium falciparum [15] = test: Antiplasmodial activity against chloroquine-resistant Plasmodium falciparum W2 infected in human RBC after 72 hrs by parasite lactate dehydrogenase assay; format: functional, organism-based; conditions: W2, 72 h
Plasmodium falciparum [16] = test: Antiplasmodial activity against chloroquine-resistant Plasmodium falciparum K1 infected in human erythrocytes assessed as inhibition of [3H]hypoxanthine incorporation incubated for 48 hrs prior to [3H]hypoxanthine addition measured after 48 hrs by liquid scintillation counting; format: functional, organism-based
Plasmodium berghei [17] = test: Antimalarial activity against Plasmodium berghei ANKA expressing GFP infected in mouse assessed as reduction in parasitemia at 30 mg/kg, po administered 24 hrs post-infection measured 48 hrs post-dosing by flow cytometric analysis; format: functional; set-up: scale not given: the % may be the effect or the level left
Plasmodium berghei [18] = test: Antimalarial activity against Plasmodium berghei ANKA expressing GFP infected in mouse assessed as mean survival days at 100 mg/kg, po administered 24 hrs post-infection (reference value: 6 to 7 days); format: functional
[19] = Cytotoxicity against mouse NIH3T3 cells after 24 hrs by neutral red dye uptake assay; format: cell-based; conditions: read-out: TC50
Plasmodium berghei [20] = test: Antimalarial activity against Plasmodium berghei ANKA expressing GFP infected in mouse assessed as cure from infection at 100 mg/kg, po administered 24 hrs post-infection measured on day 30; format: functional, organism-based; set-up: dose 100 mg/kg
Salmonella typhimurium [21] = test: Mutagenicity against Salmonella typhimurium TA98 assessed as revertants at 61 uM incubated for 90 mins followed by drug washout measured after 2 days relative to positive control; format: toxicity, organism-based; conditions: salmonella enterica subsp. enterica serovar typhimurium, 1.5 h
Salmonella typhimurium [22] = test: Mutagenicity against Salmonella typhimurium TA98 assessed as revertants at 15 uM incubated for 90 mins followed by drug washout measured after 2 days relative to positive control; format: toxicity, organism-based; conditions: salmonella enterica subsp. enterica serovar typhimurium
Salmonella typhimurium [23] = test: Mutagenicity against Salmonella typhimurium TA100 assessed as revertants at 40 uM incubated for 90 mins followed by drug washout measured after 2 days relative to positive control; format: toxicity, organism-based; conditions: salmonella enterica subsp. enterica serovar typhimurium
Salmonella typhimurium [24] = test: Mutagenicity against Salmonella typhimurium TA100 assessed as revertants at 15 uM incubated for 90 mins followed by drug washout measured after 2 days relative to positive control; format: toxicity, organism-based; conditions: salmonella enterica subsp. enterica serovar typhimurium
Salmonella typhimurium [25] = test: Mutagenicity against Salmonella typhimurium TA100 assessed as revertants at 24 uM incubated for 90 mins followed by drug washout measured after 2 days relative to positive control; format: toxicity, organism-based; conditions: salmonella enterica subsp. enterica serovar typhimurium
Salmonella typhimurium [26] = test: Mutagenicity against Salmonella typhimurium TA100 assessed as revertants at 66 uM incubated for 90 mins followed by drug washout measured after 2 days relative to positive control; format: toxicity, organism-based; conditions: salmonella enterica subsp. enterica serovar typhimurium
Salmonella typhimurium [27] = test: Mutagenicity against Salmonella typhimurium TA98 assessed as revertants at 66 uM incubated for 90 mins followed by drug washout measured after 2 days relative to positive control; format: toxicity, organism-based; conditions: salmonella enterica subsp. enterica serovar typhimurium
Salmonella typhimurium [28] = test: Mutagenicity against Salmonella typhimurium TA100 assessed as revertants at 4 uM incubated for 90 mins followed by drug washout measured after 2 days relative to positive control; format: toxicity, organism-based; conditions: salmonella enterica subsp. enterica serovar typhimurium, 1.5 h
Salmonella typhimurium [29] = test: Mutagenicity against Salmonella typhimurium TA100 assessed as revertants at 9 uM incubated for 90 mins followed by drug washout measured after 2 days relative to positive control; format: toxicity, organism-based; conditions: salmonella enterica subsp. enterica serovar typhimurium, 1.5 h
Salmonella typhimurium [30] = test: Mutagenicity against Salmonella typhimurium TA98 assessed as revertants at 33 uM incubated for 90 mins followed by drug washout measured after 2 days relative to positive control; format: toxicity, organism-based; conditions: salmonella enterica subsp. enterica serovar typhimurium, 1.5 h
Salmonella typhimurium [31] = test: Mutagenicity against Salmonella typhimurium TA98 assessed as revertants at 17 uM incubated for 90 mins followed by drug washout measured after 2 days relative to positive control; format: toxicity, organism-based; conditions: salmonella enterica subsp. enterica serovar typhimurium
Salmonella typhimurium [32] = test: Mutagenicity against Salmonella typhimurium TA100 assessed as revertants at 33 uM incubated for 90 mins followed by drug washout measured after 2 days relative to positive control; format: toxicity, organism-based; conditions: salmonella enterica subsp. enterica serovar typhimurium, 1.5 h
Salmonella typhimurium [33] = test: Mutagenicity against Salmonella typhimurium TA98 assessed as revertants at 4 uM incubated for 90 mins followed by drug washout measured after 2 days relative to positive control; format: toxicity, organism-based; conditions: salmonella enterica subsp. enterica serovar typhimurium
Salmonella typhimurium [34] = test: Mutagenicity against Salmonella typhimurium TA98 assessed as revertants at 8 uM incubated for 90 mins followed by drug washout measured after 2 days relative to positive control; format: toxicity, organism-based; conditions: salmonella enterica subsp. enterica serovar typhimurium, 1.5 h
Salmonella typhimurium [35] = test: Mutagenicity against Salmonella typhimurium TA100 assessed as revertants at 17 uM incubated for 90 mins followed by drug washout measured after 2 days relative to positive control; format: toxicity, organism-based; conditions: salmonella enterica subsp. enterica serovar typhimurium
Salmonella typhimurium [36] = test: Mutagenicity against Salmonella typhimurium TA100 assessed as revertants at 2 uM incubated for 90 mins followed by drug washout measured after 2 days relative to positive control; format: toxicity, organism-based; conditions: salmonella enterica subsp. enterica serovar typhimurium
Salmonella typhimurium [37] = test: Mutagenicity against Salmonella typhimurium TA98 assessed as revertants at 2 uM incubated for 90 mins followed by drug washout measured after 2 days relative to positive control; format: toxicity, organism-based; conditions: salmonella enterica subsp. enterica serovar typhimurium, 1.5 h

Clc1ccc2c(NC(c3ccccc3)(c3ccc(CN4CCCC4)c(Cl)c3)c3ccc(CN4CCCC4)c(Cl)c3)ccnc2c1
IC50 (Plasmodium falciparum [1]): 26 nM
Activity (Salmonella typhimurium [2]): 3%
inhibition [3]: 72%
MSD (Plasmodium berghei [4]): 7 days
Activity (Salmonella typhimurium [5]): 4%
Activity (Salmonella typhimurium [6]): 0%
Activity (Salmonella typhimurium [7]): 1%
Activity (Plasmodium berghei [8]): 99.3%
Activity (Plasmodium berghei [9]): inactive
CC50 at 24 h [10]: 6100 nM
IC50 (Plasmodium falciparum [11]): 9.5 nM
Activity (Salmonella typhimurium [12]): 4%
Activity (Salmonella typhimurium [13]): 0%
Activity (Salmonella typhimurium [14]): 5%
IC50 (Plasmodium falciparum [15]): 52 nM
IC50 (Plasmodium falciparum [16]): 8.4 nM
Activity (Plasmodium berghei [17]): 99.4%
MSD (Plasmodium berghei [18]): 21.3 days
CC50 at 24 h [19]: 15000 nM
Activity (Plasmodium berghei [20]): inactive
Activity (Salmonella typhimurium [21]): 5%
Activity (Salmonella typhimurium [22]): 1%
Activity (Salmonella typhimurium [23]): 4%
Activity (Salmonella typhimurium [24]): 5%
Activity (Salmonella typhimurium [25]): 6%

Fc1cc(C(Nc2ccnc3cc(C(F)(F)F)ccc23)c2ccc(Cl)cc2)ccc1CN1CCCC1 (racemic)
IC50 (Plasmodium falciparum [1]): 51 nM
Activity (Salmonella typhimurium [26]): 1%
Activity (Salmonella typhimurium [27]): 8%
Activity (Salmonella typhimurium [28]): 3%
Activity (Salmonella typhimurium [29]): 1%
Activity (Salmonella typhimurium [30]): 4%
Activity (Salmonella typhimurium [31]): 4%
CC50 at 24 h [10]: 19000 nM
IC50 (Plasmodium falciparum [11]): 20 nM
Activity (Salmonella typhimurium [32]): 8%
Activity (Salmonella typhimurium [33]): 1%
Activity (Salmonella typhimurium [34]): 1%
IC50 (Plasmodium falciparum [15]): 76 nM
IC50 (Plasmodium falciparum [16]): 33 nM
Activity (Salmonella typhimurium [35]): 4%
Activity (Salmonella typhimurium [36]): 4%
Activity (Salmonella typhimurium [37]): 1%
CC50 at 24 h [19]: 34000 nM
